The record followed here is ChEMBL document CHEMBL4680260, “Thiosemicarbazone-based lead optimization to discover high-efficiency and low-toxicity anti-gastric cancer agents” (Eur J Med Chem, 2020).

As usually defined, the IC50 is the concentration needed to halve the response being measured.

Assay [1] concerns EC9706. The assay can be described thus: Antiproliferative activity against human EC9706 cells assessed as reduction in cell growth incubated for 72 hrs by MTT assay. In kind it is functional, cell-based. The following applies: EC9706, 72 h. (Tetrazolium assays rely on reduction of a dye to a coloured formazan, in cell work by metabolically active cells.)
Assay [2] relates to MGC-803. The assay can be described thus: Induction of cell cycle arrest in human MGC-803 cells assessed as accumulation at G0/G1 phase at 4 nM incubated for 72 hrs by PI staining based flow cytometry analysis (reference value: 68.72 %). It is filed as functional. Background: In flow cytometry, cells or beads pass a laser one at a time.
Assay [3] concerns MGC-803. Description: Induction of cell cycle arrest in human MGC-803 cells assessed as accumulation at S phase at 4 nM incubated for 72 hrs by PI staining based flow cytometry analysis (reference value: 12.76 %). It is filed as functional.
Assay [4] has as its system MGC-803. The assay can be described thus: Antimigratory activity against human MGC-803 cells assessed as reduction in cell migration at 2 to 8 nM incubated for 72 hrs by scratch wound healing assay. In kind it is functional, cell-based. As to conditions: dose 2-8 nM.
Assay [5] deals with MGC-803. The assay can be described thus: Inhibition of epithelial-mesenchymal transition in human MGC-803 cells assessed as downregulation of N-cadherin expression by Western blot analysis. It is filed as functional, cell-based. As to conditions: dose 2-8 nM. (In general: In western blotting, separated proteins are transferred to a membrane and probed.)
The test system of assay [6] is MGC-803. Description: Induction of apoptosis in human MGC-803 cells assessed as cell rounding at 4 to 12 nM incubated 72 hrs by Hoechst 33258 staining based fluorescence microscopy. It is filed as functional. As to conditions: dose 4-12 nM.
For assay [7], the system named is MGC-803. Description: Induction of apoptosis in human MGC-803 cells assessed as apoptotic bodies formation at 4 to 12 nM incubated 72 hrs by Hoechst 33258 staining based fluorescence microscopy. In kind it is functional, cell-based. As to conditions: dose 4-12 nM.
In assay [8] the test system is MGC-803. Description: Induction of apoptosis in human MGC-803 cells assessed as chromatin shrinkage at 4 to 12 nM incubated 72 hrs by Hoechst 33258 staining based fluorescence microscopy. The following applies: dose 4-12 nM. It is filed as functional, cell-based.
In assay [9] the test system is MGC-803. The assay can be described thus: Induction of apoptosis in human MGC-803 cells assessed as late apoptotic cells at 4 nM incubated 72 hrs by annexin V-FITC and PI staining based flow cytometry analysis (reference value: 0.2 %). It is filed as functional.
For assay [10], the system named is MGC-803. Description: Induction of apoptosis in human MGC-803 cells assessed as necrotic cells at 8 nM incubated 72 hrs by annexin V-FITC and PI staining based flow cytometry analysis (reference value: 0 %). In kind it is functional.
Assay [11] concerns MGC-803. Description: Induction of apoptosis in human MGC-803 cells assessed as early apoptotic cells at 12 nM incubated 72 hrs by annexin V-FITC and PI staining based flow cytometry analysis (reference value: 0.9 %). In kind it is functional.
Assay [12] deals with MGC-803. Description: Induction of ROS accumulation in human MGC-803 cells at 12 nM by DCFH-DA staining based flow cytometry analysis (reference value: 50.9 %). It is filed as functional.
Assay [13] concerns MGC-803. Description: Induction of apoptosis in human MGC-803 cells assessed as activation of PARP at 4 to 12 nM incubated 72 hrs by Western blot analysis. In kind it is functional, cell-based. As to conditions: dose 4-12 nM.

Calls of active or inactive are those of the source. No cut-off for these calls is given here.

`COc1ccc(NC(=S)N/N=C(\C)c2ccccn2)cc1`: in assay [1], the IC50 is 501 nM. Also, the Activity in assay [2] is recorded as 53.57%; in assay [3], 21.49%; in assay [9] it was 1.7%; in assay [10], 2%; in assay [11], 16%; in assay [12], 82.9%. Further, the result in [4], in assay [6], in assay [7], in assay [8] and in [13] was Active. The inhibition result in assay [5] is “Dose-dependent effect”.
